Consider nine molecules from ChEMBL document CHEMBL2380275, “Synthesis of new heterocyclic hybrids based on pyrazole and thiazolidinone scaffolds as potent inhibitors of tyrosinase” (Bioorg Med Chem, 2013).

Assay [1] has as its target T1, Tyrosinase (Agaricus bisporus, UniProt O42713).
T1 sequence (O42713 whole entry): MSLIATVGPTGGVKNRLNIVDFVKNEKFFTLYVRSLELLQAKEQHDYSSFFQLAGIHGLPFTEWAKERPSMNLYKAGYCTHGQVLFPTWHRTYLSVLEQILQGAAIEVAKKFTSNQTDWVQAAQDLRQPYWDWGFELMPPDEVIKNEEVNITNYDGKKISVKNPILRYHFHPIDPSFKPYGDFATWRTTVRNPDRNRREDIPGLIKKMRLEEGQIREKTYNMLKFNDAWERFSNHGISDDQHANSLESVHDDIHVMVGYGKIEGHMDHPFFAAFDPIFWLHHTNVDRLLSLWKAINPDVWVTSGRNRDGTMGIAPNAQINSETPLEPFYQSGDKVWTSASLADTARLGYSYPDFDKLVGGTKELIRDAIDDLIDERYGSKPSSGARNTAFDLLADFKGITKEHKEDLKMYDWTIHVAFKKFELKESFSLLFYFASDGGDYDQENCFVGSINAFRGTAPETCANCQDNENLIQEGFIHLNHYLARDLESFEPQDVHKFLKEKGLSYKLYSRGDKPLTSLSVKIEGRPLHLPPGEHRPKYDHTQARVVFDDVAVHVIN
The experiment in a line: Inhibition of mushroom tyrosinase using L-DOPA as substrate preincubated for 10 mins by spectrophotometric analysis.

Assay [2] concerns the target T1, Tyrosinase.
Description: Competitive inhibition of mushroom tyrosinase diphenolase activity assessed as L-DOPA conversion to dopachrome by Lineweaver-Burk plot analysis
For assay [3], the target named is T2, Tyrosinase (Agaricus bisporus) (UniProt O42713).
T2 sequence (whole entry): T1 sequence (O42713 whole entry)
As to the kind of experiment: Inhibition of mushroom tyrosinase using L-DOPA as substrate at 200 uM preincubated for 10 mins by spectrophotometric analysis relative to control.

For assay [4], the target named is T2, Tyrosinase (Agaricus bisporus). As to the kind of experiment: Reversible inhibition of mushroom tyrosinase diphenolase activity assessed as L-DOPA conversion to dopachrome by Lineweaver-Burk plot analysis.

Activity calls are given as the source filed them. No cut-off for these calls is given here.

As for `COc1ccc(NC2=NC(=O)/C(=C/c3cn(-c4ccccc4)nc3-c3ccc(Cl)cc3Cl)S2)c(OC)c1`, the midpoint of inhibition at Tyrosinase [1], the IC50, lay at 81.7 µM. The molecule also gave a Ki on Tyrosinase [2] of 16.9 µM. Besides, the inhibition in assay [3] worked out at 52%.
`COc1ccc(NC2=NC(=O)/C(=C/c3cn(-c4ccccc4)nc3-c3ccc(Cl)cc3)S2)c(OC)c1` gave an IC50 on Tyrosinase [1] of 74 µM. The affinity at Tyrosinase [2] corresponds to a Ki of 5.7 µM. Moreover, the inhibition in assay [3] amounted to 38%.
Regarding `COc1ccc(NC2=NC(=O)/C(=C/c3cn(-c4ccccc4)nc3-c3ccc(C)cc3)S2)c(OC)c1`, the IC50 against Tyrosinase [1] was 194 µM. For the same molecule, the inhibition in assay [3] came to 13.5%.
The molecule `COc1ccc(NC2=NC(=O)/C(=C/c3cn(-c4ccccc4)nc3-c3ccc(Br)cc3)S2)c(OC)c1` displayed a half-maximal inhibitory concentration (IC50) on Tyrosinase [1] of 131 µM. In addition, at Tyrosinase [2], the Ki came to 9.46 µM. The inhibition in assay [3] is 87.9%.
Taken in the same sequence, the figures for `COc1ccc(NC2=NC(=O)/C(=C/c3cn(-c4ccccc4)nc3-c3ccc(F)cc3)S2)c(OC)c1` were 104 µM, 7.18 µM and 54.2%.
On Tyrosinase [1], `COc1ccc(NC2=NC(=O)/C(=C/c3cn(-c4ccccc4)nc3-c3ccccc3Cl)S2)c(OC)c1` registered an IC50 of 34.1 µM. Besides, in assay [4], the inhibition entry is “Active”. On Tyrosinase [2], the Ki stood at 29.1 µM. In assay [3], the inhibition was found to be 126%.
For the molecule `COc1ccc(NC2=NC(=O)/C(=C/c3cn(-c4ccccc4)nc3-c3ccccc3)S2)c(OC)c1`, in assay [3], the inhibition amounted to 8.03%.
Turning to `COc1ccc(NC2=NC(=O)/C(=C/c3cn(-c4ccccc4)nc3-c3cccc(Cl)c3)S2)c(OC)c1`, half-maximal inhibition at Tyrosinase [1] (IC50) required 52.6 µM. For the same molecule, in assay [4], the inhibition entry is “Active”. Also, the Ki on Tyrosinase [2] is 21.5 µM. Also, the inhibition in assay [3] was 110%.
With `COc1ccc(-c2nn(-c3ccccc3)cc2/C=C2\SC(Nc3ccc(OC)cc3OC)=NC2=O)cc1`, inhibition against Tyrosinase [1] was half-maximal at 114 µM (IC50). In addition, the inhibition in assay [3] was determined as 46.8%.
